Experimental data as given in US20240374595A1, “SUBSTITUTED 1,1'-BIPHENYL COMPOUNDS, ANALOGUES THEREOF, AND METHODS USING SAME” (Arbutus Biopharma Corporation, priority 2018, published 2024).

Biological target: PD-L1 (Homo sapiens (Human), UniProt Q9NZQ7)
Experiment: PD-L1 HTRF assay (PD-1/PD-L1 interaction)
Assay type: binding
Settings: PD-L1 His 6 nM, PD-1 Fc 6 nM; inhibitors 3-fold diluted from 20 μM
Description: PD-L1 small molecule inhibitors were diluted by 3-fold starting from 20 μM and a final concentration of 0.001 μM and added to the well. PD-1 Fc protein was added at the final concentration of 6 nM. PD-L1 His protein, PD-L1 small molecule inhibitors, and PD1 Fc proteins were added to the well in this order, with each 5 μl volume, and were incubated for 15 minutes at room temperature. […] The plate was read using PerkinElmer Envision plate reader and data was analyzed by Prism 6 software.

Chain of PD-L1 (Q9NZQ7 19-238): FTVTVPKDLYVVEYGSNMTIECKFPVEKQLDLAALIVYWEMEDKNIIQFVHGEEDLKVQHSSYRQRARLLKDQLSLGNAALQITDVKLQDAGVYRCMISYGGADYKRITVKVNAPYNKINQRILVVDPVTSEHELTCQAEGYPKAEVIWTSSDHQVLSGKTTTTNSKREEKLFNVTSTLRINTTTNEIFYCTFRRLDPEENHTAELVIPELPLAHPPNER

SMILES | IC50 [nM]
Cc1c(COc2cc(OCc3cncc(C#N)c3)c(C3=NCC(O)CN3)cc2Cl)cccc1-c1cccc(COc2cc(OCc3cncc(C#N)c3)c(C3=NCC(O)CN3)cc2Cl)c1C (stereo not drawn) [Example 28, 5-[[4-chloro-5-[[3-[3-[[2-Chloro-5-[(5-cyano-3-pyridyl)methoxy]-4-(5-hydroxy-1,4,5,6-tetrahydropyrimidin-2-yl)phenoxy]methyl]-2-methyl-phenyl]-2-methyl-phenyl]methoxy]-2-(5-hydroxy-1,4,5,6-tetrahydropyrimidin-2-yl)phenoxy]methyl]pyridine-3-carbonitrile] | 6.7
COc1cc(OCc2cccc(-c3cccc(COc4cc(OC)c(CN5CCCC[C@H]5C(=O)O)cc4Cl)c3C)c2C)c(Cl)cc1CO [Example 30, (2S)-1-[[5-chloro-4-[[3-[3-[[2-chloro-4-(hydroxymethyl)-5-methoxy-phenoxy]methyl]-2-methyl-phenyl]-2-methyl-phenyl]methoxy]-2-methoxy-phenyl]methyl]piperidine-2-carboxylic acid] | 4
COc1cc(OCc2cccc(-c3cccc(COc4cc(OC)c(CNCCO)cc4Cl)c3C)c2C)c(Cl)cc1CNCCO [Example 31, 2,2′-((((((2,2′-Dimethyl-[1,1′-biphenyl]-3,3′-diyl)bis(methylene))bis(oxy))bis (5-chloro-2-methoxy-4,1-phenylene))bis(methylene))bis(azanediyl))bis(ethan-1-ol)] | 1
Cc1c(NC(=O)c2ccc(CO)cn2)cccc1-c1cccc(NC(=O)c2ccc(CO)cn2)c1C [Example 32, 5-(Hydroxymethyl)-N-[3-[3-[[5-(hydroxymethyl)pyridine-2-carbonyl]amino]-2-methyl-phenyl]-2-methyl-phenyl]pyridine-2-carboxamide] | 3.2
Cc1c(NC(=O)c2ccc(CNCCO)cn2)cccc1-c1cccc(OCCCN2CCC(O)CC2)c1C [Example 33, 5-[(2-hydroxyethylamino)methyl]-N-[3-[3-[3-(4-hydroxy-1-piperidyl)propoxy]-2-methyl-phenyl]-2-methyl-phenyl]pyridine-2-carboxamide] | 3.7
Cc1c(NC(=O)c2ccc(CNCCO)cn2)cccc1-c1cccc(NC(=O)c2ccc(CNCCO)cn2)c1C [Example 34, 5-[(2-Hydroxyethylamino)methyl]-N-[3-[3-[[5-[(2-hydroxyethylamino)methyl]pyridine-2-carbonyl]amino]-2-methyl-phenyl]-2-methyl-phenyl]pyridine-2-carboxamide] | 1
Cc1c(NC(=O)c2ccc(C3=NCCC(C(=O)O)N3)cn2)cccc1-c1cccc(NC(=O)c2ccc(C3=NCCC(C(=O)O)N3)cn2)c1C (stereo not drawn) [Example 35, 2-[6-[[3-[3-[[5-(4-Carboxy-1,4,5,6-tetrahydropyrimidin-2-yl)pyridine-2-carbonyl]amino]-2-methyl-phenyl]-2-methyl-phenyl]carbamoyl]-3-pyridyl]-1,4,5,6-tetrahydropyrimidine-4-carboxylic acid] | 0.3
Cc1c(NC(=O)c2ccc(CNCCO)cn2)cccc1-c1cccc(NC(=O)c2ccc(CN3CC[C@@H](O)C3)cn2)c1C [Example 37, (R)-5-(((2-hydroxyethyl)amino)methyl)-N-(3′-(5-((3-hydroxypyrrolidin-1-yl)methyl)picolinamido)-2,2′-dimethyl-[1,1′-biphenyl]-3-yl)picolinamide] | 0.8
Cc1c(NC(=O)c2ccc(CNCCO)cn2)cccc1-c1cccc(NC(=O)c2ccc(CN(C)CCO)cn2)c1C [Example 38, 5-(((2-hydroxyethyl)-(methyl)amino)methyl)-N-(3′-(5-(((2-hydroxyethyl)amino)methyl)picolinamido)-2,2′-dimethyl-[1,1′-biphenyl]-3-yl)picolinamide] | 0.9
